Results on six compounds are retold here after patent publication US20250170104A1, “INHIBITORS OF PSEUDOMONAS AERUGINOSA VIRULENCE FACTOR Lasß” (priority 2022, published 2025).

Values after ≈ are worked out from the molar mass of the structure shown. Where two headings read alike, the source gives them in different places.

Data set [1] concerns the target LasB (Pseudomonas aeruginosa (strain ATCC 15692 / DSM 22644 / CIP 104116 / JCM 14847 / LMG 12228 / 1C / PRS 101 / PAO1), UniProt P14756). Briefly: In vitro LasB activity assay (fluorogenic substrate). Format: biochemical. Conditions: LasB 0.3 nM, substrate 150 μM, mean ± SD. The method, then:
The LasB activity assay was performed as described previously (Nishino N, Powers J C. Pseudomonas aeruginosa elastase. Development of a new substrate, inhibitors, and an affinity ligand. J Biol Chem. 1980 Apr. 25; 255(8):3482-6) using the fluorogenic substrate 2-Aminobenzoyl-L-Alanyl-Glycyl-L-Leucyl-L-Alanyl-para-Nitro-Benzyl-Amide, purchased from Peptides International (Louisville, KY, USA) and vivitide, LLC (Gardner, MA, USA).
Fluorescence intensity was measured for 60 min at 37° C. in black 384-well microtiter plates (Greiner BioOne, Kremsmünster, Austria) using a CLARIOstar microplate reader (BMG Labtech, Ortenberg, Germany) with an excitation wavelength of […] and an emission wavelength of 415±20 nm. The assay was performed in a final volume of 50 μL of assay buffer (50 mM Tris, pH 7.2, 2.5 mM CaCl2), 0.075% Pluronic F-127, 5% DMSO) containing LasB at a final concentration of […] 0.3 nM and the substrate at 150 μM. Before substrate addition, compounds were preincubated with the enzyme at 37° C. for 15 min. Experiments were performed in duplicates and repeated for at least two times. Blank controls without enzyme were performed. After blank subtraction, the slope of samples containing inhibitors (v) was divided by the slope of a simultaneously started uninhibited enzymatic reaction (v0). IC50 values were determined with nonlinear regression using GraphPad Prism 5 (Graph Pad Software, San Diego, CA, USA) and are given as mean values ±standard deviation (SD). The slope factor was constrained to 1.

Data set [2] is described as follows: in vitro. Format: in vitro ADME. Conditions: mouse, s9. The method, then: For the evaluation of combined phase I and phase II metabolic stability, the compound (1 μM) was incubated with 1 mg/mL pooled liver S9 fraction (Xenotech), 2 mM NADPH, 1 mM UDPGA, 10 mM MgCl2, 5 mM GSH and 0.1 mM PAPS at 37° C. for 0, 5, 15, 30 and 60 min. The metabolic stability of Testosterone (1 μM), verapamil (1 μM) and ketoconazol (1 μM) were determined in parallel to confirm the enzymatic activity of the S9 fraction. The incubation was stopped by precipitation of S9 enzymes with 2 volumes of cold acetonitrile containing internal standard (150 nM Diphenhydramine). Samples were stored on ice for 10 min and precipitated protein was removed by centrifugation (15 min, 4° C., 4,000 rpm). The remaining test compound at different time points was analyzed by LC-MS/MS (TSQ Quantum Access MAX, Thermo Fisher, Dreieich, Germany) and used to determine half-life (t½).

The nature of data set [3]: Kinetic turbidimetric solubility assay. Format: physicochemical. Conditions: PBS. The method, then: The desired compounds were sequentially diluted in DMSO in a 96-well plate. 1.5 μL of each well were transferred into another 96-well plate and mixed with 148.5 μL of PBS. Plates were shaken for 5 min at 600 rpm at room temperature, and the absorbance at 620 nm was measured. Absorbance values were normalized by blank subtraction and plotted using GraphPad Prism 8.4.2 (GraphPad Software, San Diego, CA, USA). Solubility (S) was determined based on the First X value of AUC function using a threshold of 0.005.

Data set [4] concerns the target ADAM-17 (TACE) (Homo sapiens (Human), UniProt P78536). Briefly: ADAM-17 (TACE) inhibitor screening assay. Type of data set: biochemical. To be noted: read-out: Selectivity IC50 TACE. The method, then:
The ADAM-17 (TACE) Inhibitor Screening Assay Kit was purchased from Sigma-Aldrich. The assay was performed according to the guidelines of the manufacturer using ilomastat as a positive control. Fluorescence signals were measured in a CLARIOstar plate reader (BMG Labtech).

Data set [5] in a line: Cytotoxicity assay. Type of data set: cell-based. To be noted: human. The method, then:
HepG2, HEK293 or A549 cells (2×10^5 cells per well) were seeded in 24-well, flat-bottomed plates. Culturing of cells, incubations, and OD measurements were performed as described previously (Int. J. Cancer 2007, 121, 206-210). Twenty-four hours after seeding the cells, the incubation was started by the addition of test compound in a final DMSO concentration of 1%. The living cell mass was determined after 48 h. At least two independent measurements were performed for each compound.

In data set [6] the target is HDAC3 (Homo sapiens (Human), UniProt O15379). The data set is described as follows: HDAC inhibition. Format: biochemical. To be noted: read-out: Selectivity IC50 HDAC3. The method, then: (§1) HDAC3 and HDAC8 Inhibitor Screening Assay kits were purchased from Sigma-Aldrich. The assay was performed according to the guidelines of the manufacturer using trichostatin as a positive control. Fluorescence signals were measured in a CLARIOstar plate reader (BMG Labtech).
HDAC3, sequence (O15379 whole entry, looked up): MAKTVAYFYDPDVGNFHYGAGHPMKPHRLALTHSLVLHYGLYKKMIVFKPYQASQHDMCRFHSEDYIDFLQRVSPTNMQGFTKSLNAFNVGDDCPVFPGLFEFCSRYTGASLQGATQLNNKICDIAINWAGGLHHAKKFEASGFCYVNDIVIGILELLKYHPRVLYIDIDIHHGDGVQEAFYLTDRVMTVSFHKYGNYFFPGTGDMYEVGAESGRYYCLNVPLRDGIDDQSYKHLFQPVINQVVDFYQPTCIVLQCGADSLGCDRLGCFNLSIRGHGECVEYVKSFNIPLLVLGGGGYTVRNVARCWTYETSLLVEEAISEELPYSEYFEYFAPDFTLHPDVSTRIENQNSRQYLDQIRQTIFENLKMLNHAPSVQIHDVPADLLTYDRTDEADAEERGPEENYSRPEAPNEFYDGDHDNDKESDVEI
HDAC3, sequence (Q9Y618 whole entry partner, looked up): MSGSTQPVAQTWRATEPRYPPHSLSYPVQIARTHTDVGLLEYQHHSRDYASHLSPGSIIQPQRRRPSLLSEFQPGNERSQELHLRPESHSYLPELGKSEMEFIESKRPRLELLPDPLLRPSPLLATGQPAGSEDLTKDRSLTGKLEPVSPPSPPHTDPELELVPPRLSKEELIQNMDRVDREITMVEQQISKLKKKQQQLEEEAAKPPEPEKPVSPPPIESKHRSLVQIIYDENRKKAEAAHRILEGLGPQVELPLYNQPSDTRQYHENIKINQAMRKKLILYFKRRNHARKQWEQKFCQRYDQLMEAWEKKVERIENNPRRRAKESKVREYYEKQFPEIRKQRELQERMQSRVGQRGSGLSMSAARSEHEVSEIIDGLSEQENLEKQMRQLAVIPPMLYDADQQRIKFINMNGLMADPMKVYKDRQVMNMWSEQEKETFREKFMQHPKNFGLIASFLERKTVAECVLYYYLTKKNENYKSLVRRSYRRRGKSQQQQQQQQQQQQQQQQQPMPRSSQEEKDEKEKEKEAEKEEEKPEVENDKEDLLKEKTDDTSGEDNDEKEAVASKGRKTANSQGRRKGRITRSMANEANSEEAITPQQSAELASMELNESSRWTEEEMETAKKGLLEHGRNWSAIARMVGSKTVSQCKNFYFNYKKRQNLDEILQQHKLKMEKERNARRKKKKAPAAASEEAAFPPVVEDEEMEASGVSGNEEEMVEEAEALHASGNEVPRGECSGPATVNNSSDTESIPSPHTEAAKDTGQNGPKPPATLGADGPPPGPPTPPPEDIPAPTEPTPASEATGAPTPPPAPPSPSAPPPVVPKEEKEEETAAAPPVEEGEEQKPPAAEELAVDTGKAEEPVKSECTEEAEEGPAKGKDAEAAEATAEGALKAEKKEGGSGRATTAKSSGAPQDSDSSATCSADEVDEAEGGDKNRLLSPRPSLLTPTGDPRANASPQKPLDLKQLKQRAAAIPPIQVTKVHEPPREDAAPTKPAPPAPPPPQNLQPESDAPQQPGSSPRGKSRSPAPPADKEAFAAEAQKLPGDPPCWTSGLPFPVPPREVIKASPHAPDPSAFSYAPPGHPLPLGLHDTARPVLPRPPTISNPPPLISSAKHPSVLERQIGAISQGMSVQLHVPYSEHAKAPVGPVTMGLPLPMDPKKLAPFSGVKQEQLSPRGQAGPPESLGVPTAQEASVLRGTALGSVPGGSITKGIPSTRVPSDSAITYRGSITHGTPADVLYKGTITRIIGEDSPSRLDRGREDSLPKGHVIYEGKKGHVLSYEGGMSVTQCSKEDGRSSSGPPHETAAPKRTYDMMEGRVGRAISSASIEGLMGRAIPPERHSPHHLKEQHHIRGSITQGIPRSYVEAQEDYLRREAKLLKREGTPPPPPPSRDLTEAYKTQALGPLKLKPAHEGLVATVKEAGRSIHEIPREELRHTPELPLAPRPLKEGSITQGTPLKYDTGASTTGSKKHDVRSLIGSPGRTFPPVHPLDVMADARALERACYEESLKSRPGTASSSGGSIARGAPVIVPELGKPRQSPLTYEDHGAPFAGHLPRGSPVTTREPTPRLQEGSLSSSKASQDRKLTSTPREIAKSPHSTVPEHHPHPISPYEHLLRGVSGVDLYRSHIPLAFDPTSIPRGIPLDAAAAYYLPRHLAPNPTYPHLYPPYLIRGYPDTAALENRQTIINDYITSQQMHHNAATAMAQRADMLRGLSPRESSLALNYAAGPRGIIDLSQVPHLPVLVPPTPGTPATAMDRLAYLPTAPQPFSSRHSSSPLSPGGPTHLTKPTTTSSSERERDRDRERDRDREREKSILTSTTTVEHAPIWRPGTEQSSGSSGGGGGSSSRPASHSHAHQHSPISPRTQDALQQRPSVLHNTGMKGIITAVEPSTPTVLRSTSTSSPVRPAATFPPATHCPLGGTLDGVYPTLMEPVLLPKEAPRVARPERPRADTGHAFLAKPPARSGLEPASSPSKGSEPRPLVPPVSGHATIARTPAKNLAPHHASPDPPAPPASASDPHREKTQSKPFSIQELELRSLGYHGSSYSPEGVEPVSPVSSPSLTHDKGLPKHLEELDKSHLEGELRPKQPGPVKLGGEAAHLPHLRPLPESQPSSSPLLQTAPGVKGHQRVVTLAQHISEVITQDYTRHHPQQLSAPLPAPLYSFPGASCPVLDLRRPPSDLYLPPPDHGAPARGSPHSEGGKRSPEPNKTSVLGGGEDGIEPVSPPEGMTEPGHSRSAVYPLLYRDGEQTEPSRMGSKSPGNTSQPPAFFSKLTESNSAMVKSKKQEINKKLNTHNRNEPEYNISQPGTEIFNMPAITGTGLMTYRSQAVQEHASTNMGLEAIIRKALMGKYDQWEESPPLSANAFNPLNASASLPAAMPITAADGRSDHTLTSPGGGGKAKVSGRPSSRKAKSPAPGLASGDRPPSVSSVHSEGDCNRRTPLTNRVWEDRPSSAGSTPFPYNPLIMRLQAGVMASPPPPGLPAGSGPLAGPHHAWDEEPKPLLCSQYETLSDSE

Data set [7] concerns the target HDAC8 (Homo sapiens (Human), UniProt Q9BY41). Briefly: HDAC inhibition. Type of data set: biochemical. Conditions: read-out: Selectivity IC50 HDAC8. The method, then: as §1
In data set [8] the test system is P. aeruginosa PA-14. The data set is described as follows: MIC determination assay / antibacterial activity. Format: cell-based. Conditions: Pseudomonas aeruginosa, PA14. The method, then:
Assays regarding the determination of the minimum inhibitory concentration (MIC) were performed as described previously (Elgaher W A M, Fruth M, Groh M, Haupenthal J, Hartmann R W. Expanding the scaffold for bacterial RNA polymerase inhibitors: design, synthesis and structure-activity relationships of ureido-heterocyclic-carboxylic acids. RSC Adv. 2013 Dec. 3; 4(5):2177-94). The experiments were based on the P. aeruginosa strain PA14. For the case that no MIC value could be determined due to activity reasons, percentage (%) inhibition at 100 μM (or lower, depending on the solubility of the compounds) was calculated. The OD600 was measured 0 and 16 h after inhibitor addition in a CLARIOstar Platereader (BMG Labtech, Ortenberg, Germany).

The target in data set [9] is MMP2 (Homo sapiens (Human), UniProt P08253). Briefly: Selectivity assay: inhibition of MMPs. Format: biochemical. The method, then: (§2) MMPs-1, -2, -3, -7, -8 and -14 along with the SensoLyte 520 Generic MMP Activity Kit*Fluorimetric* were purchased from AnaSpec (Fremont, CA, USA). The assay was performed as described previously (Schönauer E, Kany A M, Haupenthal J, Hüsecken K, Hoppe I J, Voos K, et al. Discovery of a Potent Inhibitor Class with High Selectivity toward Clostridial Collagenases. J Am Chem Soc. 2017 Sep. 13; 139(36):12696-703) using batimastat as a positive control according to the guidelines of the manufacturer.
MMP2, sequence (P08253 110-660): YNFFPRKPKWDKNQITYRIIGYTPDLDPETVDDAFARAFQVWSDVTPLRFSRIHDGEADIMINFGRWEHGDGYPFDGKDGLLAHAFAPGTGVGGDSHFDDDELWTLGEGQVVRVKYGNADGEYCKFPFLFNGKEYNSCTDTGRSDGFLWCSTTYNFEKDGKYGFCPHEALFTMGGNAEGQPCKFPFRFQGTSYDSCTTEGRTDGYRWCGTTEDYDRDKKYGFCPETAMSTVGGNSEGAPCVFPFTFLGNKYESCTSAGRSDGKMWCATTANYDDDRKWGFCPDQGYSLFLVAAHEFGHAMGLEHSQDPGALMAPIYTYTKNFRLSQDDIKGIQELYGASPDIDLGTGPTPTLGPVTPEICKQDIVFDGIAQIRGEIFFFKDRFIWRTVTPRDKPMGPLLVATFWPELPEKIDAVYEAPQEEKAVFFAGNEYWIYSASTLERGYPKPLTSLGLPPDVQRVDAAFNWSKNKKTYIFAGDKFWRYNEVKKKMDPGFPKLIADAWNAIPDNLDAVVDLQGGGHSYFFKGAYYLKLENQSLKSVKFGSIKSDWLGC

Data set [10] addresses MMP3 (Homo sapiens (Human), UniProt P08254). The data set is described as follows: Selectivity assay: inhibition of MMPs. Type of data set: biochemical. The method, then: as §2
For data set [11], the target named is MMP1 (Homo sapiens (Human), UniProt P03956). Briefly: Selectivity assay: inhibition of MMPs. Type of data set: biochemical. The method, then:
as §2

The mark [12] stands for this setting: aqueous buffer, kinetic from dmso stock.

MMP1, sequence (P03956 100-469): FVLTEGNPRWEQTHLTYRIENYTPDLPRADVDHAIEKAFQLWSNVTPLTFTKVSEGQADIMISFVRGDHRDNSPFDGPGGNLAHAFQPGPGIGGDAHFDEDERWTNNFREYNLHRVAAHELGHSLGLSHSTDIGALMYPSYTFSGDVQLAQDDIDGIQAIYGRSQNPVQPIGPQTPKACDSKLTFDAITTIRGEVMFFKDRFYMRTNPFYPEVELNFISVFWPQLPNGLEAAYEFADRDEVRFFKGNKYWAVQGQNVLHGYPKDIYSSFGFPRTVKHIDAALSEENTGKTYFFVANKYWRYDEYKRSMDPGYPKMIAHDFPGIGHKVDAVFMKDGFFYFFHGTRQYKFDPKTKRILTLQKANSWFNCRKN
ADAM-17 (TACE), sequence (P78536 whole entry, looked up): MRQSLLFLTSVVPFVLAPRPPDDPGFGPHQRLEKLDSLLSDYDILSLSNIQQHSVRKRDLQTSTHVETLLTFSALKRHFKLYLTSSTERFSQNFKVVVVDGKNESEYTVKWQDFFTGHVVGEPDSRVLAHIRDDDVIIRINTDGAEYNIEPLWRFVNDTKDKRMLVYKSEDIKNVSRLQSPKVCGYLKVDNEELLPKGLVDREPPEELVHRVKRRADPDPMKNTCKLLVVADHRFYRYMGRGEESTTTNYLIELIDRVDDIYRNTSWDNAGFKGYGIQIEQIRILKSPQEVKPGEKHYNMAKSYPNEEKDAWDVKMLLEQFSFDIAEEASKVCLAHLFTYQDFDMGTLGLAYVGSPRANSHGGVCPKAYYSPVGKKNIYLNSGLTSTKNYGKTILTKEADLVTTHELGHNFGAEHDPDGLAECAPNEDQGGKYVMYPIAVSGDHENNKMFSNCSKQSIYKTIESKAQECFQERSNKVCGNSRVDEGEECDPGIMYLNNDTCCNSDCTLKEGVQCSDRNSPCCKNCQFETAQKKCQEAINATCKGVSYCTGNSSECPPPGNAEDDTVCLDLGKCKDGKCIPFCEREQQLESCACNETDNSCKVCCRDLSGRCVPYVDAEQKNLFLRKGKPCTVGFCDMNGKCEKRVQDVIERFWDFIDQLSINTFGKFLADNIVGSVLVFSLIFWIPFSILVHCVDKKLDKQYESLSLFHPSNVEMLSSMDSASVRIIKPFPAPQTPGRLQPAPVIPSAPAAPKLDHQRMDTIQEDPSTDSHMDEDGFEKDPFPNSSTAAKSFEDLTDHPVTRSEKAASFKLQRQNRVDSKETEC
HDAC8, sequence (Q9BY41 whole entry): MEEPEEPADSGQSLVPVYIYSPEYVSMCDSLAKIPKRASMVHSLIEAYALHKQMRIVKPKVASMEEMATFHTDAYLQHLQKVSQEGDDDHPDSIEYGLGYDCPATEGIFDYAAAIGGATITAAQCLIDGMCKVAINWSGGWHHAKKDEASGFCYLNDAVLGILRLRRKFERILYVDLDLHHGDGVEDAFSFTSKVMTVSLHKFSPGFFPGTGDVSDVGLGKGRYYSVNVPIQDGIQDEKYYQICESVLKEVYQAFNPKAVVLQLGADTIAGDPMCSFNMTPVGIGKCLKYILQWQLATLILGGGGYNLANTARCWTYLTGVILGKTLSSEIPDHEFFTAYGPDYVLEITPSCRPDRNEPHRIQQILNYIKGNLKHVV

Usually IC50 stands for the concentration needed to halve the response being measured. One may read the half-life as how long it takes for the measured level to halve. Higher therefore signals slow loss. Usually solubility stands for the concentration that dissolves in the medium under given conditions. Higher therefore signals much dissolved substance. Regarding `CC(C)CC(C(=O)NO)C(=O)Nc1ccc(Cn2cc(CN(C)S(=O)(=O)c3ccc(I)cc3)nn2)cc1` (centres unmarked) [Compound 131, 2-(Hydroxycarbamoyl)-N-[4-[[4-[[(4-iodophenyl)sulfonyl-methyl-amino]methyl]triazol-1-yl]methyl]phenyl]-4-methyl-pentanamide], the IC50 in data set [1] was 0.0023 ± 0.0001 µM. In data set [2], this compound came in with a half-life at 1 μM of 37.5 ± 2.5 min. In [3] (setting [12]), this compound registered a solubility at 5 min of under 200 µM.

The compound `CC(C)CC(C(=O)NO)C(=O)Nc1ccc(Cn2cc(CSc3ccc(Cl)cc3)nn2)cc1` (centres unmarked) [Compound 136, N-[4-[[4-[(4-Chlorophenyl)sulfanylmethyl]triazol-1-yl]methyl]phenyl]-2-(hydroxycarbamoyl)-4-methyl-pentanamide] came in with an IC50 in [1] of 0.0014 ± 0.0001 µM. The compound also registered a half-life at 1 μM in data set [2] of 3.3 ± 0.2 min. In data set [3] (setting [12]), this compound registered a solubility at 5 min of under 200 µM.

`CC(C)CC(C(=O)NO)C(=O)Nc1ccc(Cn2cc(CNS(=O)(=O)c3ccc(F)cc3)nn2)cc1` (centres unmarked) [Compound 160, N-[4-[[4-[[(4-Fluorophenyl)sulfonylamino]methyl]triazol-1-yl]methyl]phenyl]-2-(hydroxycarbamoyl)-4-methyl-pentanamide]: the IC50 in data set [1] is 0.0038 ± 0.0001 µM; in data set [4] it was over 100 µM; in data set [6], over 100 µM; in data set [7], over 100 µM; in data set [8], over 100 µM; in [9], over 100 µM. Moreover, the IC50 in data set [10] and in data set [11] was over 100 µM throughout. In data set [2], this compound displayed a half-life at 1 μM of 65.5 ± 0.7 min. Further, the IC50 at 48 h in [5] (A549 cells), in data set [5] (HEK293 cells) and in data set [5] (HepG2 cells) was over 100 µM each time. In [3] (setting [12]), this compound showed a solubility at 5 min of over 200 µM.

Take `CC(C)CC(C(=O)NO)C(=O)Nc1ccc(Cn2cc(CNS(=O)(=O)c3ccc(Cl)c(Cl)c3)nn2)cc1` (centres unmarked) [Compound 165, N-[4-[[4-[[(3,4-Dichlorophenyl)sulfonylamino]methyl]triazol-1-yl]methyl]phenyl]-2-(hydroxycarbamoyl)-4-methyl-pentanamide]: the IC50 in data set [1] stood at 0.0016 ± 0.0001 µM. This compound displayed a half-life at 1 μM in data set [2] of 10.7 ± 0.6 min. The solubility at 5 min in data set [3] (setting [12]) is 117 µM (≈ 66.6 µg/mL).

For `CC(C)CC(C(=O)NO)C(=O)Nc1ccc(CN=[N+]=[N-])cc1` (centres unmarked) [Compound Z9, N-[4-(Azidomethyl)phenyl]-2-(hydroxycarbamoyl)-4-methyl-pentanamide], the IC50 was 0.0169 ± 0.0006 µM in data set [1]; 1.6 ± 0.2 µM in data set [4]; over 100 µM in data set [6]; over 100 µM in data set [7]; over 100 µM in [8]; over 100 µM in data set [9]. Also, the IC50 in [10] and in [11] (read-out: Selectivity IC50 MMP1) was over 100 µM in each case. Moreover, the IC50 at 48 h in data set [5] (A549 cells), in [5] (HEK293 cells) and in data set [5] (HepG2 cells) was over 100 µM in each case.

As to `CC(C)CC(C(=O)NO)C(=O)Nc1ccc(Cn2cc(CNS(=O)(=O)c3ccc(I)cc3)nn2)cc1` (centres unmarked) [Hit L1, 2-(Hydroxycarbamoyl)-N-[4-[[4-[[(4-iodophenyl)sulfonylamino]methyl]triazol-1-yl]methyl]phenyl]-4-methyl-pentanamide], the IC50 is 0.0024 ± 0.0001 µM in [1]; over 100 µM in data set [4]; over 100 µM in [6]; over 100 µM in data set [7]; over 100 µM in [8]; over 100 µM in [9]. The IC50 in [10] and in [11] was over 100 µM in each case. The half-life at 1 μM in [2] stood at 30.1 ± 1.5 min. The IC50 at 48 h in data set [5] (A549 cells), in data set [5] (HEK293 cells) and in data set [5] (HepG2 cells) was over 100 µM throughout. For the same compound, the solubility at 5 min was found to be 142 µM (≈ 89 µg/mL) in data set [3] and 106 ± 19 µM (≈ 66.4 µg/mL) in [3] (setting [12]).
